Laboratory results taken from patent US9597407B2, “Targeted antimicrobial moieties” (C3 Jian, Inc., priority 2009, dated 2017).
Entries after “also recorded” stand apart in the source; their conditions may differ.

Tests used:
bacteria = assay: Binding of targeting peptides to microorganisms (Table 3); details: preferably 1x PBS; for Target(s) (microorganisms bound by the targeting peptide) / Target(s) (microorganism bound by the targeting peptide): peptide binding in aqueous buffers that varied depending on peptide solubility; for Target(s): microorganism the targeting peptide binds, binding in aqueous buffers that varied with peptide solubility
microorganisms [1] = assay: Morphology, biofilm and growth disruption by peptides (Table 5); type: cell-based; set-up: key: A: Peptide aggregates; B: Less hyphal formation; Clumps; Diffuse clumps and small polyps; F: Diffuse growth; H: Thin; I: Growth inhibition; Microcolony formation; Rippled; Small polyps; Thick; W: Halo formation on top, microlonies on bottom
Excerpt: In certain embodiments peptides that induce alterations in phenotype or other biological activities can also be used as antimicrobial effector moieties.

microorganisms [2] = assay: Peptide activities: binding, antimicrobial, growth or phenotype altering (Table 8)
Excerpt: In certain embodiments, peptides described herein can have multiple activities. Thus for example, a peptide can have both binding/targeting activity and antimicrobial activity. Such peptides can be used, e.g., in a chimeric construct, for any or all of these properties. Thus, for example, a peptide designated “B” in Table 8 can be used as a targeting peptide. If it is also designated G or M it can also be used for antimicrobial activity.

In the case of “PF-564 (TIILNDQINSLQERLNKLNAETDRR; Peptide with targeting and/or antimicrobial activity)”, the “Target(s) (microorganisms bound by the targeting peptide)” value (bacteria) is reported as “S. epidermidis; also recorded: C. albicans; also recorded: S. pneumoniae; also recorded: C. jeikeium”, the “Organism, effect (morphology, biofilm and growth disruption)” value (microorganisms [1]; B. subtilis) is reported as “B. subtilis (D)” and the “Organism, effect (morphology, biofilm and growth disruption)” value (microorganisms [1]; C. jeikeium) is reported as “C. jeikeium (R)”. For the same substance, the “Organism, effect (morphology, biofilm and growth disruption)” value (microorganisms [1]; C. jejuni) was “C. jejuni (R)”, the “Organism, effect (morphology, biofilm and growth disruption)” value (microorganisms [1]; MRSA) was “MRSA (C)” and the Activities (microorganisms [2]) was “G B”.
“PF-459 (EKRMSFNENQSHRPLL; Peptide with targeting and/or antimicrobial activity)” was tested, and the “Target(s) (microorganisms bound by the targeting peptide)” value (bacteria) was “P. aeruginosa”, the “Organism, effect (morphology, biofilm and growth disruption)” value (microorganisms [1]; S. pneumoniae) was “S. pneumoniae (H)” and the Activities (microorganisms [2]) was “G B”.
With “PF-045 (LDINDYRSTY; Peptide with targeting and/or antimicrobial activity)” the “Target(s)” value (bacteria) was “S. epidermidis; also recorded: E. coli; also recorded: E. faecalis; also recorded: C. jejuni”, the “Organism, effect” value (microorganisms [1]; MRSA) was “MRSA (S)” and the Activities (microorganisms [2]) was “G B”.
With “PF-738 (chain 1 KSGATSAASGAKSGASS; chain 2 KSGATSAASGAKSGASS; Peptide with targeting and/or antimicrobial activity)” the “Target(s) (microorganism bound by the targeting peptide)” value (bacteria) was “S. epidermidis; also recorded: C. albicans; also recorded: C. jeikeium”, the “Organism, effect (morphology, biofilm and growth disruption)” value (microorganisms [1]; MRSA) was “MRSA (M)” and the Activities (microorganisms [2]) was “G B”.
“PF-422 (MSRKKYENDEKSQKKLKIGRKSDVFYGIID; Peptide with targeting and/or antimicrobial activity)” was tested, and the “Target(s) (microorganisms bound by the targeting peptide)” value (bacteria) was “C. albicans and MRSA and C. jeikeium”, the “Organism, effect (morphology, biofilm and growth disruption)” value (microorganisms [1]; C. jejuni) was “C. jejuni (R)” and the “Organism, effect (morphology, biofilm and growth disruption)” value (microorganisms [1]; E. faecalis) was “E. faecalis (R)”. The “Organism, effect (morphology, biofilm and growth disruption)” value (microorganisms [1]; MRSA) was “MRSA (C)”, the “Organism, effect (morphology, biofilm and growth disruption)” value (microorganisms [1]; S. epidermidis) was “S. epidermidis (R)” and the “Organism, effect (morphology, biofilm and growth disruption)” value (microorganisms [1]; S. pneumoniae) was “S. pneumoniae (C)”. The Activities (microorganisms [2]) was “G B”.
In the case of “PF-553 (LTIVGNALQQKNQKLLLNQKKITSLG; Peptide with targeting and/or antimicrobial activity)”, the “Target(s) (microorganisms bound by the targeting peptide)” value (bacteria) is reported as “S. epidermidis and E. coli and P. aeruginosa and C. albicans and MRSA and S. pneumoniae and C. jeikeium”, the “Organism, effect (morphology, biofilm and growth disruption)” value (microorganisms [1]; B. subtilis) is reported as “B. subtilis (D)” and the “Organism, effect (morphology, biofilm and growth disruption)” value (microorganisms [1]; C. jeikeium) is reported as “C. jeikeium (R)”. For the same substance, the “Organism, effect (morphology, biofilm and growth disruption)” value (microorganisms [1]; MRSA) was “MRSA (M)”, the “Organism, effect (morphology, biofilm and growth disruption)” value (microorganisms [1]; S. pneumoniae) was “S. pneumoniae (R)” and the Activities (microorganisms [2]) was “G B”.
For “PF-756 (chain 1 DALLRLA; chain 2 DALLRLA; Peptide with targeting and/or antimicrobial activity)”, the “Target(s) (microorganism bound by the targeting peptide)” value (bacteria) was “S. epidermidis and M. luteus and C. albicans and MRSA and C. jeikeium”, the “Organism, effect (morphology, biofilm and growth disruption)” value (microorganisms [1]; S. pneumoniae) was “S. pneumoniae (A)” and the Activities (microorganisms [2]) was “G B”.
With “PF-559 (SRPGKPGGVSIDVSRDRQDILSNYP; Peptide with targeting and/or antimicrobial activity)” the “Target(s) (microorganisms bound by the targeting peptide)” value (bacteria) was “S. epidermidis; also recorded: M. luteus; also recorded: C. albicans; also recorded: C. jeikeium; also recorded: C. jejuni”, the “Organism, effect (morphology, biofilm and growth disruption)” value (microorganisms [1]; B. subtilis) was “B. subtilis (C)” and the “Organism, effect (morphology, biofilm and growth disruption)” value (microorganisms [1]; C. jejuni) was “C. jejuni (A)”. The Activities (microorganisms [2]) was “G B”.
For “PF-457 (INKYHHIA; Peptide with targeting and/or antimicrobial activity)”, the “Target(s) (microorganisms bound by the targeting peptide)” value (bacteria) was “C. albicans; also recorded: S. pneumoniae; also recorded: E. faecalis; also recorded: C. jeikeium”, the “Organism, effect (morphology, biofilm and growth disruption)” value (microorganisms [1]; S. pneumoniae) was “S. pneumoniae (M)” and the Activities (microorganisms [2]) was “G B”.
“PF-741 (chain 1 AKREDTVAAQIGANILNLIQ; chain 2 AKREDTVAAQIGANILNLIQ; Peptide with targeting and/or antimicrobial activity)” was tested, and the “Target(s) (microorganism bound by the targeting peptide)” value (bacteria) was “S. epidermidis and M. luteus and P. mirabilis and P. aeruginosa and C. albicans and MRSA and S. pneumoniae and E. faecalis”, the “Organism, effect (morphology, biofilm and growth disruption)” value (microorganisms [1]; E. coli) was “E. coli (C)” and the “Organism, effect (morphology, biofilm and growth disruption)” value (microorganisms [1]; M. luteus) was “M. luteus (C)”. The “Organism, effect (morphology, biofilm and growth disruption)” value (microorganisms [1]; MRSA) was “MRSA (C)”, the “Organism, effect (morphology, biofilm and growth disruption)” value (microorganisms [1]; P. mirabilis) was “P. mirabilis (C)” and the “Organism, effect (morphology, biofilm and growth disruption)” value (microorganisms [1]; S. epidermidis) was “S. epidermidis (C)”. The “Organism, effect (morphology, biofilm and growth disruption)” value (microorganisms [1]; S. mutans) was “S. mutans (D)”, the “Organism, effect (morphology, biofilm and growth disruption)” value (microorganisms [1]; S. pneumoniae) was “S. pneumoniae (D)” and the Activities (microorganisms [2]) was “G B”.
For “PF-052 (QELINEAVNLLVKSK; Peptide with targeting and/or antimicrobial activity)”, the “Target(s)” value (bacteria) was “S. epidermidis and M. luteus and E. coli and MRSA and E. faecalis and C. jeikeium and C. jejuni”, the “Organism, effect” value (microorganisms [1]; C. jeikeium) was “C. jeikeium (D)” and the “Organism, effect” value (microorganisms [1]; M. luteus) was “M. luteus (A)”. The “Organism, effect” value (microorganisms [1]; MRSA) was “MRSA (R)”, the “Organism, effect” value (microorganisms [1]; S. epidermidis) was “S. epidermidis (S)” and the Activities (microorganisms [2]) was “G B”.
In the case of “PF-051 (RFFNFEIKKSTKVDYVFAHVDLSDV; Peptide with targeting and/or antimicrobial activity)”, the “Target(s)” value (bacteria) is reported as “S. epidermidis and M. luteus and P. aeruginosa and C. albicans and MRSA and S. pneumoniae and E. faecalis”, the “Organism, effect” value (microorganisms [1]; M. luteus) is reported as “M. luteus (C)” and the “Organism, effect” value (microorganisms [1]; MRSA) is reported as “MRSA (D)”. The “Organism, effect” value (microorganisms [1]; S. epidermidis) was “S. epidermidis (D)”, the “Organism, effect” value (microorganisms [1]; S. mutans) was “S. mutans (D)” and the “Organism, effect” value (microorganisms [1]; S. pneumoniae) was “S. pneumoniae (D)”. For the same substance, the Activities (microorganisms [2]) was “G B”.
For “PF-024 (DLRKAK; Peptide with targeting and/or antimicrobial activity)”, the “Target(s)” value (bacteria) was “M. luteus and C. albicans and MRSA and E. faecalis and C. jeikeium”, the “Organism, effect” value (microorganisms [1]; MRSA) was “MRSA (M)” and the “Organism, effect” value (microorganisms [1]; S. epidermidis) was “S. epidermidis (D)”. The Activities (microorganisms [2]) was “G B”.
With “PF-567 (QQRVKAVDASLSQVSTQVSGAVASA; Peptide with targeting and/or antimicrobial activity)” the “Target(s) (microorganisms bound by the targeting peptide)” value (bacteria) was “S. epidermidis and P. aeruginosa and C. albicans and MRSA and S. pneumoniae and C. jeikeium”, the “Organism, effect (morphology, biofilm and growth disruption)” value (microorganisms [1]; C. jeikeium) was “C. jeikeium (C)” and the “Organism, effect (morphology, biofilm and growth disruption)” value (microorganisms [1]; C. jejuni) was “C. jejuni (D)”. For the same substance, the “Organism, effect (morphology, biofilm and growth disruption)” value (microorganisms [1]; M. luteus) was “M. luteus (C)”, the “Organism, effect (morphology, biofilm and growth disruption)” value (microorganisms [1]; MRSA) was “MRSA (D)” and the “Organism, effect (morphology, biofilm and growth disruption)” value (microorganisms [1]; S. pneumoniae) was “S. pneumoniae (D)”. The Activities (microorganisms [2]) was “G B”.
With “PF-518 (SFYSKYSRYIDNLAGAIFLFF; Peptide with targeting and/or antimicrobial activity)” the “Target(s) (microorganisms bound by the targeting peptide)” value (bacteria) was “S. epidermidis and E. coli and P. aeruginosa and C. albicans and MRSA and S. pneumoniae and E. faecalis”, the “Organism, effect (morphology, biofilm and growth disruption)” value (microorganisms [1]; E. coli) was “E. coli (R)” and the “Organism, effect (morphology, biofilm and growth disruption)” value (microorganisms [1]; E. faecalis) was “E. faecalis (C)”. For the same substance, the “Organism, effect (morphology, biofilm and growth disruption)” value (microorganisms [1]; MRSA) was “MRSA (C)”, the “Organism, effect (morphology, biofilm and growth disruption)” value (microorganisms [1]; S. epidermidis) was “S. epidermidis (C)” and the “Organism, effect (morphology, biofilm and growth disruption)” value (microorganisms [1]; S. pneumoniae) was “S. pneumoniae (M)”. The Activities (microorganisms [2]) was “G B”.
